Results reported in ChEMBL document CHEMBL1201862, “PubChem BioAssay data set” (2004).
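1) Cells in 96-well plates. 2) Compound, 48 h, 5 concentrations. 3) Linear interpolation between surrounding doses. 4) Unreached endpoint = highest concentration. GI50 marks 50% less growth.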 Activity calls are given as the source filed them. Cut-off read from the data, not from the text of the source: active = GI50 up to about 1.1 µM and inactive = higher.

What was measured:
Test in all cases: DTP human tumour cell line panel, 48 h
786-0 = test system: 786-0
A498 = test system: A498
A549 = test system: A549
ACHN = test system: ACHN
BT-549 = test system: BT-549
CAKI-1 = test system: CAKI-1
COLO 205 = test system: COLO 205
DU-145 = test system: DU-145
EKVX = test system: EKVX
HCC 2998 = test system: HCC 2998
HCT-116 = test system: HCT-116
HCT-15 = test system: HCT-15
HL-60 = test system: HL-60
HOP-62 = test system: HOP-62
HOP-92 = test system: HOP-92
HT-29 = test system: HT-29
Hs-578T = test system: Hs-578T
IGROV-1 = test system: IGROV-1
KM12 = test system: KM12
LOX IMVI = test system: LOX IMVI
M14 = test system: M14
MCF7 = test system: MCF7
MDA-MB-231 = test system: MDA-MB-231
MDA-MB-435 = test system: MDA-MB-435
MDA-N = test system: MDA-N
MOLT-4 = test system: MOLT-4
NCI-H226 = test system: NCI-H226
NCI-H23 = test system: NCI-H23
NCI-H460 = test system: NCI-H460
NCI-H522 = test system: NCI-H522
NCI/ADR-RES = test system: NCI/ADR-RES
OVCAR-3 = test system: OVCAR-3
OVCAR-4 = test system: OVCAR-4
OVCAR-5 = test system: OVCAR-5
OVCAR-8 = test system: OVCAR-8
PC-3 = test system: PC-3
RPMI-8226 = test system: RPMI-8226
RXF 393 = test system: RXF 393
SF-268 = test system: SF-268
SF-295 = test system: SF-295
SF-539 = test system: SF-539
SK-MEL-28 = test system: SK-MEL-28
SK-MEL-2 = test system: SK-MEL-2
SK-MEL-5 = test system: SK-MEL-5
SK-OV-3 = test system: SK-OV-3
SN12C = test system: SN12C
SNB-19 = test system: SNB-19
SNB-75 = test system: SNB-75
SR = test system: SR
SW-620 = test system: SW-620
T47D = test system: T47D
TK-10 = test system: TK-10
U-251 = test system: U-251
UACC-257 = test system: UACC-257
UACC-62 = test system: UACC-62
UO-31 = test system: UO-31
CCRF-CEM = test system: CCRF-CEM
K562 = test system: K562
Malme-3M = test system: Malme-3M

## O=C1OC(C2(O)OC(=O)c3ccccc32)c2ccccc21 (stereo not drawn)
786-0
  GI50: > 100000 nM (inactive)
A498
  GI50: > 100000 nM (inactive)
A549
  GI50: > 100000 nM (inactive)
ACHN
  GI50: > 100000 nM (inactive)
BT-549
  GI50: > 100000 nM (inactive)
CAKI-1
  GI50: > 100000 nM (inactive)
COLO 205
  GI50: > 100000 nM (inactive)
DU-145
  GI50: > 100000 nM (inactive)
EKVX
  GI50: 62400 nM (inactive)
HCC 2998
  GI50: > 100000 nM (inactive)
HCT-116
  GI50: > 100000 nM (inactive)
HCT-15
  GI50: > 100000 nM
HL-60
  GI50: > 100000 nM (inactive)
HOP-62
  GI50: > 100000 nM (inactive)
HOP-92
  GI50: > 100000 nM (inactive)
HT-29
  GI50: > 100000 nM (inactive)
Hs-578T
  GI50: > 100000 nM (inactive)
IGROV-1
  GI50: > 100000 nM (inactive)
KM12
  GI50: > 100000 nM (inactive)
LOX IMVI
  GI50: > 100000 nM (inactive)
M14
  GI50: > 100000 nM (inactive)
MCF7
  GI50: > 100000 nM (inactive)
MDA-MB-231
  GI50: > 100000 nM (inactive)
MDA-MB-435
  GI50: > 100000 nM (inactive)
MDA-N
  GI50: > 100000 nM (inactive)
MOLT-4
  GI50: > 100000 nM (inactive)
NCI-H226
  GI50: > 100000 nM (inactive)
NCI-H23
  GI50: > 100000 nM (inactive)
NCI-H460
  GI50: > 100000 nM (inactive)
NCI-H522
  GI50: > 100000 nM (inactive)
NCI/ADR-RES
  GI50: > 100000 nM (inactive)
OVCAR-3
  GI50: > 100000 nM (inactive)
OVCAR-4
  GI50: > 100000 nM (inactive)
OVCAR-5
  GI50: > 100000 nM (inactive)
OVCAR-8
  GI50: > 100000 nM (inactive)
PC-3
  GI50: > 100000 nM (inactive)
RPMI-8226
  GI50: > 100000 nM (inactive)
RXF 393
  GI50: > 100000 nM (inactive)
SF-268
  GI50: > 100000 nM (inactive)
SF-295
  GI50: > 100000 nM (inactive)
SF-539
  GI50: > 100000 nM (inactive)
SK-MEL-28
  GI50: > 100000 nM (inactive)
SK-MEL-2
  GI50: > 100000 nM (inactive)
SK-MEL-5
  GI50: > 100000 nM (inactive)
SK-OV-3
  GI50: > 100000 nM (inactive)
SN12C
  GI50: > 100000 nM (inactive)
SNB-19
  GI50: > 100000 nM (inactive)
SNB-75
  GI50: > 100000 nM (inactive)
SR
  GI50: > 100000 nM (inactive)
SW-620
  GI50: > 100000 nM (inactive)
T47D
  GI50: > 100000 nM (inactive)
TK-10
  GI50: > 100000 nM (inactive)
U-251
  GI50: > 100000 nM (inactive)
UACC-257
  GI50: > 100000 nM (inactive)
UACC-62
  GI50: > 100000 nM (inactive)
UO-31
  GI50: > 100000 nM (inactive)

## CN[C@@H](Cc1cccc2ccccc12)C(=O)N[C@@H](CC(C)C)B(O)O
786-0
  GI50: < 10 nM (active)
A498
  GI50: < 10 nM (active)
A549
  GI50: < 10 nM (active)
ACHN
  GI50: < 10 nM (active)
BT-549
  GI50: < 10 nM (active)
CAKI-1
  GI50: < 10 nM (active)
CCRF-CEM
  GI50: 5.16 nM (active)
COLO 205
  GI50: < 10 nM (active)
DU-145
  GI50: < 10.9 nM (active)
HCC 2998
  GI50: < 10 nM (active)
HCT-116
  GI50: < 10 nM (active)
HCT-15
  GI50: < 10 nM
HL-60
  GI50: < 10 nM (active)
HOP-62
  GI50: < 11 nM (active)
HOP-92
  GI50: < 10 nM (active)
HT-29
  GI50: < 10 nM (active)
Hs-578T
  GI50: 14.3 nM (active)
IGROV-1
  GI50: < 10 nM (active)
K562
  GI50: < 10 nM (active)
KM12
  GI50: < 10 nM (active)
LOX IMVI
  GI50: < 10 nM (active)
M14
  GI50: < 10 nM (active)
MCF7
  GI50: < 10 nM (active)
MDA-MB-231
  GI50: < 10 nM (active)
MDA-MB-435
  GI50: < 10 nM (active)
MDA-N
  GI50: < 10 nM (active)
MOLT-4
  GI50: < 10 nM (active)
Malme-3M
  GI50: < 10 nM (active)
NCI-H226
  GI50: 2.11 nM (active)
NCI-H23
  GI50: < 10 nM (active)
NCI-H460
  GI50: < 11.3 nM (active)
NCI-H522
  GI50: < 10 nM (active)
NCI/ADR-RES
  GI50: < 22.4 nM (active)
OVCAR-3
  GI50: < 10 nM (active)
OVCAR-4
  GI50: < 10 nM (active)
OVCAR-5
  GI50: < 10 nM (active)
OVCAR-8
  GI50: < 14 nM (active)
PC-3
  GI50: < 11.9 nM (active)
RPMI-8226
  GI50: < 10 nM (active)
RXF 393
  GI50: < 10 nM (active)
SF-268
  GI50: < 10 nM (active)
SF-295
  GI50: < 10 nM (active)
SF-539
  GI50: < 10 nM (active)
SK-MEL-28
  GI50: < 10 nM (active)
SK-MEL-2
  GI50: < 10 nM (active)
SK-MEL-5
  GI50: < 10 nM (active)
SK-OV-3
  GI50: 166 nM (active)
SN12C
  GI50: < 10 nM (active)
SNB-19
  GI50: < 10 nM (active)
SNB-75
  GI50: < 10 nM (active)
SR
  GI50: < 10 nM (active)
SW-620
  GI50: < 10 nM (active)
T47D
  GI50: < 10 nM (active)
TK-10
  GI50: < 10 nM (active)
U-251
  GI50: < 12.6 nM (active)
UACC-62
  GI50: < 10 nM (active)
UO-31
  GI50: < 10 nM (active)
